# Results taken from patent publication US10753941B2, “Biocompatible nanoparticles with aggregation induced emission characteristics as fluorescent bioprobes and methods of using the same for in vitro and in vivo imaging” (The Hong Kong University of Science and Technology, priority 2011, dated 2020).
# Where two headings read alike, the source gives them in different places. Residues, ends and D or L forms follow the SMILES beside them. *: point of attachment. X1 = O=C(CCCc1cn(Cc2ccc(C(=C(c3ccccc3)c3ccccc3)c3ccccc3)cc2)nn1)*
# Tests used:
# [1] = test system: HeLa cells; assay: Apoptosis imaging in live cells with AcDEVDK-TPE; assay type: cell-based, human; settings: 5 μM probe
# Experimental: The cells were cultured in the chambers (LAB-TEK, Chambered Coverglass System) at 37° C., respectively. After 80% confluence, the adherent cells were washed twice with 1×PBS buffer. The AcDEVD-TPE solution (5 μM, 0.3 mL) was then added to the chamber. After incubation for 2 h at 37° C., cells were washed two times with 1×PBS buffer. To induce apoptosis, cells were incubated with 1.0 μM of staurosporine for 1 hr and then imaged immediately by confocal laser scanning microscope (CLSM, Zeiss LSM 410, Jena, Germany) with imaging software (Fluoview FV500). The images are analyzed by ImageJ 1.43× program (developed by NIH).
# [2] = target: T1, caspase-3 (Homo sapiens, UniProt P42574); assay: Caspase turn-on assay of AcDEVDK-TPE; assay type: biochemical
# T1 construct: purchased R&D Systems
# T1 sequence (P42574 29-175 limits assumed): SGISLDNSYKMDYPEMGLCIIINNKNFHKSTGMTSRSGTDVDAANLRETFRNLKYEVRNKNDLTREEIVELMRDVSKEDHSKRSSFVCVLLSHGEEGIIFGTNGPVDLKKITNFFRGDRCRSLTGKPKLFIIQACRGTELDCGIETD
# T1 sequence (P42574 176-277 limits assumed): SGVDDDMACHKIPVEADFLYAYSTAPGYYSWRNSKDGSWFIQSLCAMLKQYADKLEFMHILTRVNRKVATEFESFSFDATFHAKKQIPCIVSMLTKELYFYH
# Source text: (§1) Cleavage of the peptide substrates AcDEVDK-TPE by caspase-3 or caspase-7 was monitored in quartz cells or in black flatbottom polypropylene 384-well plates (Nunc, USA). The corresponding concentrations of substrate and enzymes were used for each assay. Enzymatic cleavage of the substrates was monitored by fluorescence increase (excitation and emission wavelengths at 312 nm and 480 nm respectively) with on a Perkin-Elmer LS 55 spectrofluorometer or a Synergy TM 2 multi-mode microplate reader (Biotek Instruments).
# [3] = target: T2, caspase-7 (Homo sapiens, UniProt P55210); assay: Caspase turn-on assay of AcDEVDK-TPE; assay type: biochemical
# T2 construct: purchased R&D Systems
# T2 sequence (P55210 24-198 limits assumed): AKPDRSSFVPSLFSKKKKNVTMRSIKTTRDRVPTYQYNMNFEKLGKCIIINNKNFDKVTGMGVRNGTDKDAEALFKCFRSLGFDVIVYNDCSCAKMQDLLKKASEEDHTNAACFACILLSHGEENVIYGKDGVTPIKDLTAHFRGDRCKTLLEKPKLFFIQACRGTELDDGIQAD
# T2 sequence (P55210 207-303 limits assumed): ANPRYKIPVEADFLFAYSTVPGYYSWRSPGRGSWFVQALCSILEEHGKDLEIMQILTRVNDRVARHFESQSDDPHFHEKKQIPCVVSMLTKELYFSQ
# Source text: as §1
# [4] = test system: BSA, HSA, Lysozyme, Pepsin and Trypsin; assay: Selectivity of AcDEVDK-TPE against other proteins; assay type: biochemical; settings: 20 μg mL^−1 protein, 5 μM probe
# Experimental: AcDEVDK-TPE was treated with five other enzymes which are widely present in cells, such as BSA, HSA, Lysozyme, Pepsin and Trypsin under the same conditions.
# [5] = Water solubility / aggregation of probes in water (LLS, PL); assay type: physicochemical; settings: for average diameter of nanoaggregates in water (LLS): DMSO/water v/v=1:199, 10 μM
# Source text: FIG. 32A illustrates the UV-vis absorption spectra of BATPS (5) and TPS-2cRGD. Both have a similar absorption profile with the maximum at 356 nm. The corresponding photoluminescence (PL) spectra are shown in FIG. 32B, along with the photographs taken under UV irradiation. It is known that AIE fluorogens are virtually non-fluorescent in good solvents but emit intensely when aggregated in poor solvents.
# It is well known that AIE dye is virtually non-luminescent in good solvents but emits intensely when aggregated in its poor solvents. […] The excited states are readily annihilated by the intramolecular rotations of phenyl rings. Therefore, very low fluorescence was observed.
# [6] = target: T3, human integrin αvβ3 (Homo sapiens, UniProt P05106+P06756); assay: Titration of TPS-2cRGD with integrin (fluorescence turn-on); assay type: binding
# T3 construct: purchased ImmunoCell
# T3 sequence (P06756 31-1048): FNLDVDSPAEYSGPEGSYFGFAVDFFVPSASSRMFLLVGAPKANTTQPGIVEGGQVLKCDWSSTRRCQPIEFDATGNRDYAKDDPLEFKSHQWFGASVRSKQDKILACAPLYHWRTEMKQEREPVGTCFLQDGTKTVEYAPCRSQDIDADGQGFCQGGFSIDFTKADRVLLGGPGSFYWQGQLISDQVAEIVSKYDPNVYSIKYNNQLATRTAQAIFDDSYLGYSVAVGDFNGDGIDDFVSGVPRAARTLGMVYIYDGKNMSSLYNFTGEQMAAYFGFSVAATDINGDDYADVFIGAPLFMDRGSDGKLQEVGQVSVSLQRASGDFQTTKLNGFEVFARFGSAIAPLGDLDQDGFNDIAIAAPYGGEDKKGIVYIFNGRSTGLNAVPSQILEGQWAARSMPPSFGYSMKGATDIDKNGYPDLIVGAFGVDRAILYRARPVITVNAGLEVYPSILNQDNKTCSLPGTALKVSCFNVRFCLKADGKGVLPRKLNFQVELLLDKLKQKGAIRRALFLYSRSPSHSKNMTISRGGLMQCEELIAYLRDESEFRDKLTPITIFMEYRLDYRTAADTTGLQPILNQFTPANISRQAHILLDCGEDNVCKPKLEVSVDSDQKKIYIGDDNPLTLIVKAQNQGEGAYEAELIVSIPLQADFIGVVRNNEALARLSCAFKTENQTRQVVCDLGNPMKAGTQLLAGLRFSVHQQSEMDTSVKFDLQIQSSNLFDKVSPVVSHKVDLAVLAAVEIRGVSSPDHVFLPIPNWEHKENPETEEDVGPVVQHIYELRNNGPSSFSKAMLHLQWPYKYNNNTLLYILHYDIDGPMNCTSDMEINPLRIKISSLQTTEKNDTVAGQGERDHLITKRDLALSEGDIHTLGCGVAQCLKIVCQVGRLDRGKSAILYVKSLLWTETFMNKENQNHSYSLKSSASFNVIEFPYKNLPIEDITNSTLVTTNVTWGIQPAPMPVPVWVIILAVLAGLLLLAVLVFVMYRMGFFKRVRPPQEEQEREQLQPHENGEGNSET
# T3 sequence (P05106 27-788): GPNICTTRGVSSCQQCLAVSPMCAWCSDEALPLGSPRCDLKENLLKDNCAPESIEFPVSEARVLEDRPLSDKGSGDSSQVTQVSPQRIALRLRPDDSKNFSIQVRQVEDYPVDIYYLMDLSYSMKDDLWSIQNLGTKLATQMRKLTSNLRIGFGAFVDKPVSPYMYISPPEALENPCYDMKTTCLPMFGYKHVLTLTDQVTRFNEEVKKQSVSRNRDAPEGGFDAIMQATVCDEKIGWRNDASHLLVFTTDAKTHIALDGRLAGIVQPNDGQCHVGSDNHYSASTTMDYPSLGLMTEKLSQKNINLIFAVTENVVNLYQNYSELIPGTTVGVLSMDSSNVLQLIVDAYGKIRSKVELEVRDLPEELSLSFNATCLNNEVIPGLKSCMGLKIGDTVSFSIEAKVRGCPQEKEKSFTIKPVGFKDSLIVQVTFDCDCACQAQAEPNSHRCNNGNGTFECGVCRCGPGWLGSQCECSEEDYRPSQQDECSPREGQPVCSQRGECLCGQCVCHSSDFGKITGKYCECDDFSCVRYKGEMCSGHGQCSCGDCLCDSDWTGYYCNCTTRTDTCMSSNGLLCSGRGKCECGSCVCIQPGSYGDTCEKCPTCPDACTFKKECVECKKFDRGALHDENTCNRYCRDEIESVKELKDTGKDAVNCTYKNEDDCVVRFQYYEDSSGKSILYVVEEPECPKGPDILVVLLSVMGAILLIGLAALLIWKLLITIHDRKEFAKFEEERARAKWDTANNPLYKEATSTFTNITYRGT
# Experimental: (§2) 5 μL of the protein stock solution was diluted with 40 μL of 1×PBS buffer (pH 7.4). 5 μL of TPS-2cRGD (10 μM) was then added and the reaction mixture was incubated at room temperature for 30 min. The reaction mixture was then diluted to a total of 300 μL with deionized water for photoluminescence measurement. The solution was excited at 356 nm, and the emission was collected from 380 to 650 nm.
# [7] = test system: lysozyme, papain, trypsin and BSA; assay: Titration of TPS-2cRGD with other proteins (selectivity); assay type: binding; settings: 100 μg mL^−1 protein
# Experimental: as §2
# [8] = test system: HT-29 cells; assay: Real-time uptake imaging of TPS-2cRGD; assay type: cell-based; settings: 2 μM, room temperature
# Experimental: HT-29 cells were cultured in the 8-wells chambers (LAB-TEK, Chambered Coverglass System) at 37° C. After 80% confluence, the adherent cells were washed twice with 1×PBS buffer. The TPS-2cRGD solution (2 μM, 0.3 mL) and a small amount of membrane tracker were then added to the chamber. The chambers were placed on the microscope platform immediately and the microscope focused on a collection of cells. The fluorescence images (405 nm excitation and with a band pass 505-525 nm filter for the probe, and 543 nm excitation with a band pass 575-635 nm filter for the membrane tracker) acquired every 5 min.
# [9] = MTT cytotoxicity of TPS-2cRGD; assay type: cell-based; settings: human, HT-29 cancer cells; 2, 5 and 10 μM for 12, 24 and 48 h; read-out: metabolic viability
# Experimental: Methylthiazolyldiphenyl-tetrazolium (MTT) assays were used to assess the metabolic activity of HT-29 cancer cells to study the cytotoxicity of TPS-2cRGD. HT-29 cells were seeded in 96-well plates (Costar, Ill., USA) at an intensity of 4×10^4 cells mL^−1. After 24 h incubation, the medium was replaced by the TPS-2cRGD suspension at concentrations of 2, 5, and 10 μM, and the cells were then incubated for 12, 24 and 48 h, respectively. After the designated time intervals, the wells were washed twice with 1×PBS buffer and 100 μL of freshly prepared MTT (0.5 mg mL^−1) solution in culture medium was added into each well. The MTT medium solution was carefully removed after 3 h incubation in the incubator at 37° C. DMSO (100 μL) was then added into each well and the plate was gently shaken to dissolve all the precipitates formed. The absorbance of MTT at 570 nm was monitored by the microplate reader (Genios Tecan). Cell viability was expressed by the ratio of absorbance of the cells incubated with TPS-2cRGD suspension to that of the cells incubated with culture medium only.
# [10] = test system: MCF7 breast cancer cells with low integrin αvβ3 expression; assay: Confocal imaging at 4° C. with TPS-2cRGD; assay type: cell-based; settings: 2 μM, 30 min
# Experimental: (§3) Before the detection of integrin αvβ3, HT-29 and MCF-7 cells were cultured in the chambers (LAB-TEK, Chambered Coverglass System) at 37° C., respectively. After 80% confluence, the adherent cells were washed twice with 1×PBS buffer. The TPS-2cRGD solution (2 μM, 0.3 mL) was then added to the chamber. After incubation for 30 min at 4° C., cells were washed two times with 1×PBS buffer and then treated with membrane tracker for 10 min and further washed twice with 1×PBS buffer. The cells were then imaged immediately by confocal laser scanning microscope (CLSM, Zeiss LSM 410, Jena, Germany) with imaging software (Fluoview FV500). The images are analyzed by ImageJ 1.43× program (developed by NIH). The images were taken upon excitation at 405 nm (5% laser power) with a band pass 505-525 nm filter for the probe, and 543 nm (5% laser power) with a band pass 575-635 nm filter for the membrane tracker.
# [11] = test system: HT-29 colon cancer cells with overexpressed integrin αvβ3; assay: Confocal imaging at 4° C. with TPS-2cRGD; assay type: cell-based
# Experimental: as §3
# [12] = target: T1, caspase-3; assay: Caspase-3 turn-on and hydrolysis of E/Z-TPE-2DEVD; assay type: biochemical; settings: for fluorescence turn-on with caspase-3: 10 μM probe, PIPES buffer, caspase-3 100 pM, 37° C.; for rate of enzyme activated hydrolysis (HPLC): recombinant caspase-3 in buffer
# Experimental: Both have a similar absorption profile with an obvious absorbance in the 270-380 nm range.
# The enzyme kinetic studies by incubating recombinant caspase-3 with E/Z-TPE-2DEVD in buffer at 37° C. were subsequently performed, and the changes in probe hydrolysis were monitored with HPLC. DMSO stock solutions of TPE-2DEVD were diluted with caspase-3assay buffer (50 mM PIPES, 100 mM NaCl, 1 mM EDTA, 0.1% w/v CHAPS, 25% w/v sucrose, pH=7.2) to make 10 μM working solutions. 5 μL of the recombinant caspase-3 (˜0.04 μg/μL stock solution in assay buffer) was added into the above working solution. The reaction mixture was incubated at room temperature for 60 min and was then diluted to a total of 300 μL with deionized water for photoluminescence measurement. The solution was excited at 312 nm, and the emission was collected from 360 to 600 nm.
# [13] = test system: MCF-7 cancer cells; assay: Long term cellular tracking with two-photon fluorescence imaging; assay type: cell-based; settings: 1 μM, 4 h incubation; FTNPs two-photon 800 nm, MTR one-photon 560 nm
# Experimental: The performance of FTNPs in MCF-7 cancer cell tracking was investigated and compared with that of commercial Mitotracker red (MTR).
# MCF-7 breast cancer cells were cultured in Dulbecco's Modified Eagle Medium (DMEM) containing 10% fetal bovine serum and 1% penicillin streptomycin at 37° C. in a humidified environment containing 5% CO2.
# Prior to the experiment, MCF-7 breast cancer cells were pre-cultured until confluence was reached. After incubation with FTNPs and Mitotracker red (MTR) in DMEM medium (FBS-free) at 1 μM T1 and MTR for 4 h at 37° C., respectively, the corresponding cells were detached by 1× tripsin and suspended in culture medium with different cell densities. The cells were then cultured on round coverslip in 35 mm petri dishes for 0, 1, 2, 3, 4 and 5 days, respectively. After designated time intervals, the medium was removed and the adherent cells were washed twice with 1×PBS buffer, followed by fixation using 75% ethanol for 20 minutes. The cells were further washed twice with 1×PBS buffer and the coverslips were then mounted on glass slides using mounting medium in purpose of long-term storage. […] The detection of two-photon excited fluorescence of FTNPs was achieved by excitation at 800 nm with a 600-800 nm bandpass filter. On the other hand, the one-photon excited fluorescence signal from MTR was collected with a 600-800 nm bandpass filter upon 560 nm excitation.
# [14] = test system: caspase-3, pepsin, BSA, trypsin, papain and lysozyme; settings: protein 100 pM, identical conditions
# Experimental: To further investigate the probe selectivity, Z-TPE-2DEVD was treated with several proteins, such as caspase-3, pepsin, BSA, trypsin, papain and lysozyme, under identical conditions.
# [15] = inferred from weak fluorescence / LLS
compound,measurement,setting,value
CC(=O)N[C@@H](CC(=O)O)C(=O)N[C@@H](CCC(=O)O)C(=O)N[C@H](C(=O)N[C@@H](CC(=O)O)C(=O)N[C@@H](CCCCNC(=O)CCCc1cn(Cc2ccc(C(=C(c3ccccc3)c3ccccc3)c3ccccc3)cc2)nn1)C(N)=O)C(C)C [AcDEVDK-TPE] (Ac-DEVDK(X1)-NH2),fluorescence in nonapoptotic cells,[1],very weak green fluorescence
same,fluorescence in apoptotic cells,[1]; apoptosis induced with staurosporine,strong green fluorescence
same,fluorescence on incubation with caspase-3,[2]; 0 to 120 min,time-dependent increase in fluorescence
same,fluorescence enhancement with caspase-3,"[2]; 5 μM probe, 200 pM caspase-3",up to ten-fold fluorescence enhancement
same,fluorescence with caspase-3 pretreated with inhibitor,[2]; 10 μM caspase inhibitor,no fluorescence turn-on
same,fluorescence on incubation with caspase-7,[3]; 0 to 120 min,time-dependent increase in fluorescence
same,fluorescence with caspase-7 pretreated with inhibitor,[3]; 10 μM caspase inhibitor,no fluorescence turn-on
same,change of PL intensity with other proteins,[4],very little change of PL intensity
same,solubility in water,[5],good solubility in water
C[Si]1(C)C(c2ccc(Cn3cc(C[C@@H]4NC(=O)[C@@H](Cc5ccccc5)NC(=O)[C@H](CC(=O)O)NC(=O)CNC(=O)[C@H](CCCNC(=N)N)NC4=O)nn3)cc2)=C(c2ccccc2)C(c2ccccc2)=C1c1ccc(Cn2cc(C[C@@H]3NC(=O)[C@@H](Cc4ccccc4)NC(=O)[C@H](CC(=O)O)NC(=O)CNC(=O)[C@H](CCCNC(=N)N)NC3=O)nn2)cc1 [TPS-2cRGD],fluorescence enhancement on incubation with integrin αvβ3,"[6]; 10 μM probe, integrin 0 to 100 μg mL^−1",up to a seven-fold fluorescence enhancement
same,limit of detection for integrin αvβ3 in solution,[6]; three times the standard deviation,4 µg/mL
same,change of PL intensity with other proteins,[7],very little change of PL intensity
same,incubation time after which the probe is gradually internalized within cells,[8],> 25 min
same,viability,[9],~100%
same,fluorescent signal of live cells (CLSM),[10],very weak fluorescence
same,fluorescent signal of live cells (CLSM),"[11]; 2 μM, 30 min, 4° C.",strong fluorescent signal
same,fluorescent signal after pre-treatment with free cyclic RGD peptide,"[11]; 10 μM cyclic RGD peptide, then 2 μM probe",significantly reduced
same,average diameter of nanoaggregates in water (LLS),[5],no detectable signal
same,solubility in water,[5]; [15],good solubility in water
E-TPE-2DEVD: stereoisomer of Asp-Glu-Val-Asp (DEVD) peptide-conjugated TPE probe (TPE-2DEVD),fluorescence turn-on with caspase-3,[12],strong fluorescence signals
same,rate of enzyme activated hydrolysis (HPLC),[12],faster
same,solubility in water,[5]; [15],good solubility in water
ClCc1ccc(C2=c3cc4c5c(c3Oc3c2cc2c6c3CCCN6CCC2)CCC[N+]=5CCC4)cc1.[Cl-] [MTR],time over which fluorescence in treated cells is sustained / detectable,[13],1 days
Z-TPE-2DEVD: stereoisomer of Asp-Glu-Val-Asp (DEVD) peptide-conjugated TPE probe (TPE-2DEVD),"probe selectivity, changes in (I−I0)/I0",[14],specific probe for caspase-3
same,fluorescence turn-on with caspase-3,[12],stronger fluorescence enhancement
same,rate of enzyme activated hydrolysis (HPLC),[12],slower hydrolysis rate
same,solubility in water,[5]; [15],good solubility in water
"C[Si]1(C)C(c2ccc(CN=[N+]=[N-])cc2)=C(c2ccccc2)C(c2ccccc2)=C1c1ccc(CN=[N+]=[N-])cc1 [BATPS, 1,1-dimethyl-2,5-bis[4-(azidomethyl)phenyl]-3,4-diphenylsilole]",average diameter of nanoaggregates in water (LLS),[5],103 nm
